Holding throughout (format): cell-based
Test [1] concerns S. aureus ATCC 33591 (methicillin-resistant). In words: broth microdilution MIC assay, S. aureus ATCC 33591. The following applies: Staphylococcus aureus, ATCC33591; Table 4; S. aureus 33591; read-out: S. aureus 33591 MIC. An outline of the steps: (§1)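 Growth inhibition was scored by eye after 16-20 h at 37 °C in Mueller-Hinton broth. Each well received 5×10^5 CFU/mL of log-phase culture plus compound from a 2-fold dilution series.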

In test [2] the test system is E. coli ATCC 25922 (wild-type/QC strain). In words: broth microdilution MIC assay, E. coli ATCC 25922. The following applies: Escherichia coli, ATCC25922; Table 4; E. coli 25922; read-out: E. coli 25922 MIC. An outline of the steps: as §1
For orientation: In broth dilution the organism is exposed to a series of concentrations in liquid medium.

Test [3] deals with P. aeruginosa ATCC 27853 (wild-type/QC strain). Description: broth microdilution MIC assay, P. aeruginosa ATCC 27853. As to conditions: Pseudomonas aeruginosa, ATCC27853; Table 5; P. aeruginosa 27853; read-out: P. aeruginosa 27853 MIC. The method in brief:
as §1

The test system of a further test is S. aureus USA 300. Description: broth microdilution MIC assay, S. aureus USA 300. As to conditions: Staphylococcus aureus; Table 4; S. aureus USA300; read-out: S. aureus USA300 MIC. The procedure: (§2) To determine the ability of test compounds to potentiate the inhibition of the growth of bacterial strains, classic cell-based broth microdilution MIC assays were employed. MIC assays are performed according to CLSI methods except where otherwise noted (CLSI, 2011 and CLSI, 2009). The reference strains S. aureus ATCC 29213 (methicillin sensitive), S. aureus ATCC 33591 (methicillin-resistant), E. coli ATCC 25922 (wild-type/QC strain), P. aeruginosa ATCC 27853 (wild-type/QC strain), and the clinical isolate P. aeruginosa PA 8 were used to determine the ability of the exemplary carbapenem compounds to inhibit bacterial growth. An expanded panel of methicillin resistance S. aureus (MRSA) and Pseudomonas was also used to determine the ability of exemplary carbapenem compounds to inhibit bacterial growth across a broader representation of those species. To determine activity in MRSA and in addition to S. aureus ATCC 33591, S. aureus USA 300, USA 400 and USA 600, some of the most common clones found to cause human infection, were also used. To further gauge the impact on the carbapenem compounds due to various resistance mechanisms in Pseudomonas, the following strains were included: P. aeruginosa 35151 (hyper-permeable strain), P. aeruginosa AmexAB-OprM (an efflux pump knockout), and P. aeruginosa PA 3 (a clinical isolate of reduced carbapenem susceptibility). Briefly, cryo-preserved bacterial cultures of clinical strains are streaked for isolation on appropriate agar medium, in this case Mueller Hinton II agar. Following incubation to allow formation of colonies, these plates are sealed with parafilm and stored refrigerated for up to two weeks. For preparation of assay inocula and to ensure low variability, at least 5 colonies are picked from the agar plates with an inoculating loop and aseptically transferred to a culture tube containing 3 mL of Mueller-Hinton Broth (supplemented with divalent cations to required levels based on Manufacturers' specification). The broth culture is grown for 3-5 hours at 37° C. with shaking at 200 rpm. Meanwhile, 2-fold serial dilutions of test compounds are conducted in a 96 well plate with a final volume of 75 μL per well at 2-fold the final desired concentration. After the dilution plates are set up the growing cultures are then diluted in a cuvette containing MH II broth and the optical density is measured at 600 nm. Inocula are diluted such that 75 μL of this culture in Mueller-Hinton Broth results in a starting bacterial concentration of 5×10^5 CFU/mL when added to the dilution plates. The plates are incubated 16-20 hours at 37° C. The MIC is read visually as the lowest concentration well with no bacterial growth.
(§3) Representative results are shown in Tables 3, 4, and 5 where A represents an MIC>32 μg/mL, B represents an MIC between 8 and 32 μg/mL inclusive, C represents an MIC between 1 and 4 μg/mL inclusive, and D represents an MIC of <1 μg/mL. NT=Not Tested.

The test system of the next test is S. aureus USA600. Description: broth microdilution MIC assay, S. aureus USA 600. As to conditions: Staphylococcus aureus; Table 4; S. aureus USA600; read-out: S. aureus USA600 MIC. The procedure:
as §2, §3

The test system of test [4] is P. aeruginosa 35151 (hyper-permeable strain). In words: broth microdilution MIC assay, P. aeruginosa 35151. As to conditions: Pseudomonas aeruginosa, read-out: P. aeruginosa 35151 MIC. The procedure: as §2, §3
Test [5] relates to P. aeruginosa ΔmexAB-OprM (an efflux pump knockout). Description: broth microdilution MIC assay, P. aeruginosa ΔmexAB-OprM. As to conditions: Pseudomonas aeruginosa, 20 h, read-out: P. aeruginosa ΔmexAB-OprM MIC. The procedure: as §2, §3

As for `C[C@@H](O)[C@H]1C(=O)N2C(C(=O)O)=C(SC3CN(C[C@H]4CC[C@@H](N)CC4)C3)[C@H](C)[C@H]12` [Example 64, (4R,5S,6S)-3-((1-(((1s,4S)-4-aminocyclohexyl)methyl)azetidin-3-yl)thio)-6-((R)-1-hydroxyethyl)-4-methyl-7-oxo-1-azabicyclo[3.2.0]hept-2-ene-2-carboxylic acid], the MIC in test [1] was 1 to 4 µg/mL; in test [2], under 1 µg/mL; in test [3] it was 1 to 4 µg/mL; with S. aureus USA 300, under 1 µg/mL; with S. aureus USA600, under 1 µg/mL; in test [4], under 1 µg/mL. In addition, the MIC in test [5] lay within 1 to 4 µg/mL.

Regarding `C[C@@H](O)[C@H]1C(=O)N2C(C(=O)O)=C(S[C@@H]3CCN(CC4CCNCC4(C)C)C3)[C@H](C)[C@H]12` (stereo partly drawn) [Example 65, (4R,5S,6S)-3-(((3R)-1-((3,3-dimethylpiperidin-4-yl)methyl)pyrrolidin-3-yl)thio)-6-((R)-1-hydroxyethyl)-4-methyl-7-oxo-1-azabicyclo[3.2.0]hept-2-ene-2-carboxylic acid], the MIC was 1 to 4 µg/mL in test [1]; under 1 µg/mL in test [2]; 8 to 32 µg/mL in test [3]; 1 to 4 µg/mL with S. aureus USA 300; 1 to 4 µg/mL in the test on S. aureus USA600; under 1 µg/mL in test [4]. Also, the MIC in test [5] lay in the range of 1 to 4 µg/mL.

With `CNC1CCC(CN2CC(SC3=C(C(=O)O)N4C(=O)[C@H]([C@@H](C)O)[C@H]4[C@H]3C)C2)CC1` (stereo partly drawn) [Example 66, (4R,5S,6S)-6-((R)-1-hydroxyethyl)-4-methyl-3-((1-(((1s,4S)-4-(methylamino)cyclohexyl)methyl)azetidin-3-yl)thio)-7-oxo-1-azabicyclo[3.2.0]hept-2-ene-2-carboxylic acid], the MIC in test [1] is 1 to 4 µg/mL; in test [2], under 1 µg/mL; in test [3], 1 to 4 µg/mL; in the test on S. aureus USA 300, 1 to 4 µg/mL; in the test on S. aureus USA600 it was 1 to 4 µg/mL; in test [4], under 1 µg/mL. The MIC in test [5] lay in the range of 1 to 4 µg/mL.

Regarding `C[C@@H](O)[C@H]1C(=O)N2C(C(=O)O)=C(SC3CN(C[C@H]4CC[C@H](NC(=N)N)CC4)C3)[C@H](C)[C@H]12` [Example 67, (4R,5S,6S)-3-((1-(((1r,4R)-4-guanidinocyclohexyl)methyl)azetidin-3-yl)thio)-6-((R)-1-hydroxyethyl)-4-methyl-7-oxo-1-azabicyclo[3.2.0]hept-2-ene-2-carboxylic acid], the minimal inhibitory concentration (MIC) was 1 to 4 µg/mL in test [1]; under 1 µg/mL in test [2]; 1 to 4 µg/mL in test [3]; 1 to 4 µg/mL in the test with S. aureus USA 300; under 1 µg/mL with S. aureus USA600; under 1 µg/mL in test [4]. Besides, the MIC in test [5] is 1 to 4 µg/mL.

On to `CN[C@H]1CC[C@H](CN2CC(SC3=C(C(=O)O)N4C(=O)[C@H]([C@@H](C)O)[C@H]4[C@H]3C)C2)CC1` [Example 68, (4R,5S,6S)-6-((R)-1-hydroxyethyl)-4-methyl-3-((1-(((1r,4R)-4-(methylamino)cyclohexyl)methyl)azetidin-3-yl)thio)-7-oxo-1-azabicyclo[3.2.0]hept-2-ene-2-carboxylic acid], for which the MIC in test [1] was 1 to 4 µg/mL; in test [2], under 1 µg/mL; in test [3] it was 1 to 4 µg/mL; in the test on S. aureus USA 300 it was 1 to 4 µg/mL; in the test on S. aureus USA600 it was 1 to 4 µg/mL; in test [4], under 1 µg/mL. Also, in test [5], the minimum inhibitory concentration (MIC) lay within 1 to 4 µg/mL.

For `CCN[C@H]1CC[C@H](CN2CC(SC3=C(C(=O)O)N4C(=O)[C@H]([C@@H](C)O)[C@H]4[C@H]3C)C2)CC1` [Example 69, (4R,5S,6S)-3-((1-(((1r,4R)-4-(ethylamino)cyclohexyl)methyl)azetidin-3-yl)thio)-6-((R)-1-hydroxyethyl)-4-methyl-7-oxo-1-azabicyclo[3.2.0]hept-2-ene-2-carboxylic acid], the MIC in test [1] was 1 to 4 µg/mL; in test [2], under 1 µg/mL; in test [3] it was 1 to 4 µg/mL; in the test with S. aureus USA 300, 1 to 4 µg/mL; in the test with S. aureus USA600 it was 1 to 4 µg/mL; in test [4], under 1 µg/mL. Besides, in test [5], the minimum inhibitory concentration (MIC) lay within 1 to 4 µg/mL.

In the case of `CCN[C@H]1CC[C@@H](CN2CC(SC3=C(C(=O)O)N4C(=O)[C@H]([C@@H](C)O)[C@H]4[C@H]3C)C2)CC1` [Example 70, (4R,5S,6S)-3-((1-(((1s,4S)-4-(ethylamino)cyclohexyl)methyl)azetidin-3-yl)thio)-6-((R)-1-hydroxyethyl)-4-methyl-7-oxo-1-azabicyclo[3.2.0]hept-2-ene-2-carboxylic acid], the MIC in test [1] was 1 to 4 µg/mL; in test [2], under 1 µg/mL; in test [3], 1 to 4 µg/mL; in the test on S. aureus USA 300 it was 1 to 4 µg/mL; in the test on S. aureus USA600 it was 1 to 4 µg/mL; in test [4], under 1 µg/mL. Further, the MIC in test [5] was in the range of 1 to 4 µg/mL.

`C[C@@H](O)[C@H]1C(=O)N2C(C(=O)O)=C(SC3CN(CCC4CCN(C(=N)N)CC4)C3)[C@H](C)[C@H]12` [Example 71, (4R,5S,6S)-3-((1-(2-(1-carbamimidoylpiperidin-4-yl)ethyl)azetidin-3-yl)thio)-6-((R)-1-hydroxyethyl)-4-methyl-7-oxo-1-azabicyclo[3.2.0]hept-2-ene-2-carboxylic acid]: the MIC was 1 to 4 µg/mL in test [1]; under 1 µg/mL in test [2]; 1 to 4 µg/mL in test [3]; 1 to 4 µg/mL with S. aureus USA 300; under 1 µg/mL with S. aureus USA600; under 1 µg/mL in test [4]. Besides, the MIC in test [5] was 1 to 4 µg/mL.

As to `C[C@@H](O)[C@H]1C(=O)N2C(C(=O)O)=C(SC3CN(C[C@H]4CC[C@H](N(C)C(=N)N)CC4)C3)[C@H](C)[C@H]12` [Example 72, (4R,5S,6S)-6-((R)-1-hydroxyethyl)-4-methyl-3-((1-(((1r,4R)-4-(1-methylguanidino)cyclohexyl)methyl)azetidin-3-yl)thio)-7-oxo-1-azabicyclo[3.2.0]hept-2-ene-2-carboxylic acid], the MIC in test [1] was 1 to 4 µg/mL; in test [2], under 1 µg/mL; in test [3] it was 8 to 32 µg/mL; with S. aureus USA 300, 1 to 4 µg/mL; in the test with S. aureus USA600, under 1 µg/mL; in test [4], under 1 µg/mL. In addition, in test [5], the MIC fell in the range of 1 to 4 µg/mL.

Regarding `C[C@@H](O)[C@H]1C(=O)N2C(C(=O)O)=C(SC3CN(C[C@H]4CC[C@@H](NC(=N)N)CC4)C3)[C@H](C)[C@H]12` [Example 73, (4R,5S,6S)-3-((1-(((1s,4S)-4-guanidinocyclohexyl)methyl)azetidin-3-yl)thio)-6-((R)-1-hydroxyethyl)-4-methyl-7-oxo-1-azabicyclo[3.2.0]hept-2-ene-2-carboxylic acid], the MIC in test [1] is 1 to 4 µg/mL; in test [2], under 1 µg/mL; in test [3], 1 to 4 µg/mL; with S. aureus USA 300 it was 1 to 4 µg/mL; in the test with S. aureus USA600 it was under 1 µg/mL; in test [4], under 1 µg/mL. Further, in test [5], the MIC was under 1 µg/mL.

In the case of `C[C@@H](O)[C@H]1C(=O)N2C(C(=O)O)=C(SC3CN(C[C@H]4CC[C@@H](N(C)C(=N)N)CC4)C3)[C@H](C)[C@H]12` [Example 74, (4R,5S,6S)-6-((R)-1-hydroxyethyl)-4-methyl-3-((1-(((1s,4S)-4-(1-methylguanidino)cyclohexyl)methyl)azetidin-3-yl)thio)-7-oxo-1-azabicyclo[3.2.0]hept-2-ene-2-carboxylic acid], the MIC was 1 to 4 µg/mL in test [1]; under 1 µg/mL in test [2]; 8 to 32 µg/mL in test [3]; 1 to 4 µg/mL in the test with S. aureus USA 300; 1 to 4 µg/mL in the test with S. aureus USA600; under 1 µg/mL in test [4]. Further, the MIC in test [5] was 1 to 4 µg/mL.

By MIC is commonly meant the smallest concentration in the dilution series that meets the test's criterion for growth inhibition.

The record behind these values is patent US12084445B2, “Broad-spectrum carbapenems” (VenatoRx Pharmaceuticals, Inc., priority 2018, dated 2024).
